In US7741325B2, “Benzo[b]chromeno-naphthyridin-7-one and pyrano[2′,3′:7,8]quino[2,3-b]quinoxalin-7-one compounds” (priority 2004, dated 2010) one finds melting point and IC50 data, which are given here for five compounds.

Broadly, the melting point is the temperature, or range, at which the solid turns liquid.

For one series, the system named is L1210. As to the kind of experiment: In vitro cytotoxicity, tetrazolium microculture assay, L1210. It is filed as cell-based. The following applies: Mus musculus, 48 h; L1210 murine leukaemia, incubated for 2 days; read-out: IC50, the concentration of cytotoxic compound that inhibits the proliferation of the treated cells by 50%. How it is done: (§1) Two cell lines were used: • 1 murine leukaemia, L1210, • 1 human epidermoid carcinoma: KB-3-1
(§2) The cells are cultured in RPMI 1640 complete culture medium comprising 10% fcetal calf serum, 2 mM glutamine, 50 units/ml of penicillin, 50 μg/ml of streptomycin and 10 mM Hepes, pH 7.4. The cells are distributed on microplates and are exposed to the cytotoxic compounds. The cells are then incubated for 2 days (L1210) or 4 days (KB-3-1) in an incubator at 37° C. in the presence of 5% CO2. The number of viable cells is then quantified by a colorimetric assay, the tetrazolium microculture assay (Cancer Res. 1987, 47, 939-942).
(§3) The results are expressed as IC50, the concentration of cytotoxic compound that inhibits the proliferation of the treated cells by 50%.

Another series relates to KB-3-1. As to the kind of experiment: In vitro cytotoxicity, tetrazolium microculture assay, KB-3-1. Format: cell-based. The following applies: 96 h; KB-3-1 human epidermoid carcinoma, incubated for 4 days; read-out: IC50, the concentration of cytotoxic compound that inhibits the proliferation of the treated cells by 50%. As to the method:
as §1, §2, §3

As to `COc1cc2c(c3c1c(=O)c1cc4ccccc4nc1n3C)[C@@H](O)[C@@H](O)C(C)(C)O2` (racemic) [Example 3, (±)-cis-1,2-Dihydroxy-6-methoxy-3,3,14-trimethyl-1,2,3,14-tetrahydro-7H-benzo[b]chromeno[6,5-g][1,8]naphthyridin-7-one], the melting point came out at 298 °C.

Consider `COc1cc2c(c3c1c(=O)c1cc4ccccc4nc1n3C)[C@@H](OC(C)=O)[C@@H](OC(C)=O)C(C)(C)O2` (racemic) [Example 4, (±)-cis-1,2-Diacetoxy-6methoxy-3,3,14-trimethyl-1,2,3,14-tetrahydro-7H-benzo[b]chromeno[6,5-g][1,8]naphthyridin-7-one], for which the melting point turned out to be 244 °C. The IC50 with L1210 was 320 nM. For the same compound, the IC50 in the series on KB-3-1 worked out at 37 nM.

Consider `COc1cc2c(c3c1c(=O)c1cc4ccccc4nc1n3C)[C@H]1OC(=O)O[C@H]1C(C)(C)O2` (racemic) [Example 5, (±)-cis-7-Methoxy-4,4,15-trimethyl-15,15c-dihydro-4H-benzo[b][1,3]-dioxolo[4′,5′:3,4]chromeno[6,5-g][1,8]naphthyridin-2,8[3aH]-dione], for which the melting point was 234 °C.

As to `Cn1c2nc3ccccc3cc2c(=O)c2c(O)cc3c(c21)C=CC(C)(C)O3` [Example 1, 6-Hydroxy-3,3,14-trimethyl-3,14-dihydro-7H-benzo-[b]chromeno-[6,5-g][1,8]naphthyridin-7-one], the melting point was 278 °C.

In turn, `COc1cc2c(c3c1c(=O)c1cc4ccccc4nc1n3C)C=CC(C)(C)O2` [Example 2, 6-Methoxy-3,3,14-trimethyl-3,14-dihydro-7H-benzo[b]chromeno-[6,5-g][1,8]naphthyridin-7-one] came in with a melting point of 270 °C.
